Data reported in US20230055961A1, “PENTAFLUOROBENZENESULFONAMIDE DERIVATIVES AND USES THEREOF” (Dunad Therapeutics Ltd., priority 2019, published 2023).
Like-named read-outs stand apart in the source and are kept apart here.

Tests used:
BTK [1] = biological target: T1, BTK (Homo sapiens, UniProt Q06187); assay: In vitro BTK inhibition, biochemical IC50 (no preincubation); details: Table 7
Procedure: IC50 Values (nM) for the Inhibition of BTK Activity
In vitro BTK and JAK3 inhibition studies are shown in Table 7 and Table 8 (no preincubation).
Target sequence in this assay (Q06187 whole entry, species assumed): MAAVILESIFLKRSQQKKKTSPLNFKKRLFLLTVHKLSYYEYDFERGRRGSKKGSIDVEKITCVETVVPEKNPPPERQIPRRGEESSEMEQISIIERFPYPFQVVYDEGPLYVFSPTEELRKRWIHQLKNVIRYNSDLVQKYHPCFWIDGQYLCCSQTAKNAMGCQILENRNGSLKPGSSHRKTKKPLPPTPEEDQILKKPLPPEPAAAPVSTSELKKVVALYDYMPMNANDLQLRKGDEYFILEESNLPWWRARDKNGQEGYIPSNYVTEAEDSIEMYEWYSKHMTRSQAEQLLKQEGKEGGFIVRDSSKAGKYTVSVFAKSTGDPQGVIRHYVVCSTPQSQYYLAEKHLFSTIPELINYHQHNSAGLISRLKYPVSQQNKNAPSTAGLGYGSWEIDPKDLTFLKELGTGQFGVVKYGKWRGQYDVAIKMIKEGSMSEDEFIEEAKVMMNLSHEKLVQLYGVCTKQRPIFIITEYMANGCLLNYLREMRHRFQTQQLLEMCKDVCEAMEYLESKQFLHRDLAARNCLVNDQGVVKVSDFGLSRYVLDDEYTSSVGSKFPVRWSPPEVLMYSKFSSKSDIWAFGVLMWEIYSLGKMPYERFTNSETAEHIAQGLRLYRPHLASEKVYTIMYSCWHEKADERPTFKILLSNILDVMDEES

RL cells = assay: IC50 of Ibrutinib analogs against human cancer cells, RL cells (Table 14); format: cell-based; details: for IC50: Homo sapiens, RL, read-out: RL (IC50)
Procedure: 1×10^4 cells (NHF cells)/well are plated in 96-well assay plates in culture medium. […] After 24 hrs, test compounds and vehicle controls are added to appropriate wells so the final volume is 100p in each well. The cells are cultured for the desired test exposure period (72 hrs) at 37° C. and 5% CO2. The assay plates are removed from 37° C. incubator and 20 μl/well of CellTiter-Blue® Reagent is added. The plates are incubated using standard cell culture conditions for 1-4 hours and the plates are shaken for 10 seconds and record fluorescence at 560/590 nm. […] Therapeutic index=(IC50 human fibroblasts/IC50 […] )

[2] = system: normal pooled human fibroblasts; assay: IC50 of Ibrutinib analogs against normal human cells, pooled human fibroblasts (Table 14); format: cell-based; details: Fibroblast, Table 14, normal human cell line
Procedure: Anti-cancer efficacy of exemplary compounds of this application is assessed in vitro in different cancer cell lines. Cell viability is examined following treatment at various concentration of inhibitor (0.097656-50 μM) using a cell Titer-Blue cell viability assay. 1×10^4 cells (NHF cells)/well are plated in 96-well assay plates in culture medium. All cells are grown in DMEM, IMDM and RPMI-1640 supplemented with 10% FBS. After 24 hrs, test compounds and vehicle controls are added to appropriate wells so the final volume is […] in each well. The cells are cultured for the desired test exposure period (72 hrs) at 37° C. and 5% CO2. The assay plates are removed from 37° C. incubator and 20 μl/well of CellTiter-Blue® Reagent is added. The plates are incubated using standard cell culture conditions for 1-4 hours and the plates are shaken for 10 seconds and record fluorescence at 560/590 nm.
Therapeutic index=(IC50 human fibroblasts/IC50 RLcells)

FGFR4 = FGFR4 (Homo sapiens, UniProt P22455); assay: In vitro kinase inhibition studies (Table 9), FGFR4; format: biochemical
FGFR4, sequence (P22455 22-802, species assumed): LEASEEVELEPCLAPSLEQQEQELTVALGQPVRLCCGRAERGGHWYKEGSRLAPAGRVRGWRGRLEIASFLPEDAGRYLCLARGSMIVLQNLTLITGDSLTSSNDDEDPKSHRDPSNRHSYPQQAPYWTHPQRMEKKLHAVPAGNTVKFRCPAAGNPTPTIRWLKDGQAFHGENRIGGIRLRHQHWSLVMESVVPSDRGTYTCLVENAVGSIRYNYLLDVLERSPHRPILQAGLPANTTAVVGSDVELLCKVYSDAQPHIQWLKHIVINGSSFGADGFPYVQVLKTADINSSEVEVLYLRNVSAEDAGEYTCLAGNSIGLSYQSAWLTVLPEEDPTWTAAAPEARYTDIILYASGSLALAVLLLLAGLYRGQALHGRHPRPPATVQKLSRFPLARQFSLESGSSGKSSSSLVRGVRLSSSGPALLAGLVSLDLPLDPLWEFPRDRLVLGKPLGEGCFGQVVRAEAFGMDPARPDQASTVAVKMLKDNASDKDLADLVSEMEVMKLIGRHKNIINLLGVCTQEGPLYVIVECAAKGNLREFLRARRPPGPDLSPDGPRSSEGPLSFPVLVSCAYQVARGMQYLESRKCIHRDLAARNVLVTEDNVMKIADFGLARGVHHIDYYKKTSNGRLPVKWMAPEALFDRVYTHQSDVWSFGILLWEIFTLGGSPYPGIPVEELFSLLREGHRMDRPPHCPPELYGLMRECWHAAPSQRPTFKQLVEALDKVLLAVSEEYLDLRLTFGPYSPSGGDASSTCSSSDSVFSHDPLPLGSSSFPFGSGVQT

FGFR2 = FGFR2 (Homo sapiens, UniProt P21802); assay: In vitro kinase inhibition studies (Table 13), FGFR2; format: biochemical
FGFR2, sequence (P21802 22-821, species assumed): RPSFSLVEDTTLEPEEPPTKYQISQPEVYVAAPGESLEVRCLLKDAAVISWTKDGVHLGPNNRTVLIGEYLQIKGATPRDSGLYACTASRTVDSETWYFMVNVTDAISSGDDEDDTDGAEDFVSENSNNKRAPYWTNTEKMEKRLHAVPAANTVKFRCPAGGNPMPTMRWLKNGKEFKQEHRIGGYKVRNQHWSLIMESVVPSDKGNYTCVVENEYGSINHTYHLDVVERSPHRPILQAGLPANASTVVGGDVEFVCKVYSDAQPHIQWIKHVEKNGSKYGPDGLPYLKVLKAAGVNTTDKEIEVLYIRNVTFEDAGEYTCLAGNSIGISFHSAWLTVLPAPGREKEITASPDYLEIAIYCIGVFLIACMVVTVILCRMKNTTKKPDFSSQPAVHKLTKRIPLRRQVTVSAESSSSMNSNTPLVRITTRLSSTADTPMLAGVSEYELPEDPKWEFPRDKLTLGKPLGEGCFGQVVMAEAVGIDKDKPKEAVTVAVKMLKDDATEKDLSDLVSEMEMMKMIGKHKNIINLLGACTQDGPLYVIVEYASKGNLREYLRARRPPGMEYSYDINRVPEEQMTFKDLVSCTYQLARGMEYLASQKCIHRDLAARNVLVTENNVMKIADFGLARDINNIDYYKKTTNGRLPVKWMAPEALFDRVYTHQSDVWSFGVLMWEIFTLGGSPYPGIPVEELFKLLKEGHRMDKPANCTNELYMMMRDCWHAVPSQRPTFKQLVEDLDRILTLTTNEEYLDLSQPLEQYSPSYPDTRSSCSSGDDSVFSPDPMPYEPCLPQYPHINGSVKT

CSK = CSK (Homo sapiens, UniProt P41240); assay: In vitro kinase inhibition studies (Table 13), CSK; format: biochemical
BTK [3] = biological target: T1, BTK; assay: Covalent modification of BTK by mass spectrometry of the intact protein; format: binding; set-up: His-tagged BTK kinase domain was prepared from pET-28b(+)-BTK (402-655) vector; details: 10 μM BTK, 50 μM compound, 2 hours at 30° C.; expected 596 Da
Procedure: After incubation of 10 μM BTK in the presence of 50 μM Compound 5-1 for 2 hours at 30° C., the mass of the modified protein was determined by mass spectrometry. […] After incubation with Compound 5-1, the intensity of this had decreased by an order of magnitude, and the most intense peak is consistent with the protein whose mass was increased by 595 Da, corresponding closely to the expected mass of the inhibitor Compound 5-1 (less one fluoride from inhibitor, and one proton from protein, 596 Da).
Target sequence in this assay (Q06187 402-655 limits assumed, species assumed): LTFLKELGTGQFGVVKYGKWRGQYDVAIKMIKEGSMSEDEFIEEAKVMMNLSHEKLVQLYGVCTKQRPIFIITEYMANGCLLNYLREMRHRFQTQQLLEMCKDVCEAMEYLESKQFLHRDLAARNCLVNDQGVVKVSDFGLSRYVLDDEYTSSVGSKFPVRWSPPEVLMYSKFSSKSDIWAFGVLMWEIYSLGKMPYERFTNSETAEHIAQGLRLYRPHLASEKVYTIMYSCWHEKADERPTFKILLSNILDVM

- IC50 (BTK [1]): 10 to 100 nM
- IC50 (RL cells; TABLE 9): 1610 nM
- IC50 (RL cells; Table 14, RL human non-Hodgkin's lymphoma B cell line): 2740 nM
- IC50 (FGFR4): 10 to 300 nM
- IC50 (FGFR2): 100 to 1000 nM
- IC50 (CSK): 100 to 1000 nM
- mass increase of BTK protein after incubation with compound (BTK [3]): 595 Da
SMILES: Nc1ncnc2c1c(-c1ccc(Oc3ccccc3)cc1)nn2[C@@H]1CCCN(S(=O)(=O)c2c(F)c(F)c(F)c(F)c2F)C1 [Compound 5-1, (R)-1-(1-((perfluorophenyl)sulfonyl)piperidin-3-yl)-3-(4-phenoxyphenyl)-1H-pyrazolo[3,4-d]pyrimidin-4-amine]
- cell-based efficacy compared with Ibrutinib (RL cells; RL cells): better cell-based efficacy
- IC50 [2]: 6200 nM
